{"source": "BindingDB's records for doi:10.1021/ml400486k", "about": "(University of California, 2014)"}
{"assay": "Inhibition of Bacillus anthracis lethal toxin-induced mouse RAW264.7 cell death preincubated for 1 hr followed by lethal toxin challenge measured after 4 hrs", "units": {"IC50": "nM"}}
{"smiles": "Cc1cccc(C)c1NC(=O)N/N=C/c1ccc(F)cc1F", "IC50": 2100}
{"smiles": "Cc1cccc(C)c1NC(=O)N/N=C/c1ccc(Br)cc1", "IC50": 1400}
{"smiles": "CCc1cccc(CC)c1NC(=O)N/N=C/c1ccc(Br)cc1", "IC50": "> 12500"}
{"smiles": "C/C(=N\\NC(=O)Nc1c(C)cccc1C)c1ccc(Br)cc1", "IC50": 2500}
{"smiles": "Cc1cccc(/C=N/NC(=O)Nc2c(C)cccc2C)c1", "IC50": 13400}
{"smiles": "Cc1cccc(C)c1/N=C(\\N)N/N=C/c1ccc(Br)cc1", "IC50": 13800}
{"smiles": "Cc1ccc(/C=N/NC(=O)Nc2c(C)cccc2C)cc1F", "IC50": 1800}
{"smiles": "Cc1cccc(C)c1NC(=O)N/N=C/c1ccc(Br)cc1Cl", "IC50": 3200}
{"smiles": "Cc1cccc(C)c1NC(=O)N/N=C/c1ccc(Br)o1", "IC50": "> 25000"}
{"smiles": "Cc1cccc(C)c1NC(=O)N(C)/N=C/c1ccc(Br)cc1", "IC50": 2000}
{"smiles": "Cc1cccc(C)c1NC(=O)N/N=C/c1ccc(Cl)cc1", "IC50": 1700}
{"smiles": "Cc1cccc(C)c1NC(=O)N/N=C/c1ccc(N=[N+]=[N-])cc1", "IC50": 2800}
{"smiles": "Cc1cccc(C)c1NC(=O)N/N=C/c1ccc(Br)s1", "IC50": 1700}
{"smiles": "Cc1cccc(C)c1NC(=O)N/N=C/c1ccc(Br)c(Cl)c1", "IC50": 3400}
{"smiles": "Cc1cccc(C)c1NC(=O)N/N=C/c1ccc(Br)c(F)c1", "IC50": 1500}
{"smiles": "Cc1cccc(C)c1NC(=O)N/N=C/c1ccc(N=[N+]=[N-])cc1F", "IC50": 2200}
{"smiles": "Cc1cccc(C)c1NC(=O)N/N=C/c1ccccc1F", "IC50": 8200}
{"smiles": "Cc1cc(C)c(NC(=O)N/N=C/c2ccc(Br)cc2)c(C)c1", "IC50": 12600}
{"smiles": "Cc1cccc(C)c1NC(=O)N/N=C/c1ccc(C(F)(F)F)cc1", "IC50": 2600}
{"smiles": "Cc1cccc(C)c1NC(=O)N/N=C/c1ccc(Br)cc1F", "IC50": 400}
{"smiles": "Cc1cccc(C)c1NC(=O)N/N=C/c1ccc(F)cc1", "IC50": 7000}
{"smiles": "Cc1ccc(/C=N/NC(=O)Nc2c(C)cccc2C)cc1", "IC50": 2900}
{"smiles": "Cc1cccc(C)c1NC(=O)N/N=C/c1ccc(C(C)C)cc1", "IC50": 6500}
{"smiles": "C#CCN(/N=C/c1ccc(Br)cc1)C(=O)Nc1c(C)cccc1C", "IC50": "> 12500"}
{"smiles": "Cc1cccc(C)c1NC(=O)N/N=C/c1ccc(C#N)cc1", "IC50": 2500}
{"smiles": "Cc1cccc(C)c1NC(=S)N/N=C/c1ccc(Br)cc1", "IC50": 1500}
{"smiles": "Cc1cccc(C)c1NC(=O)N/N=C/c1ccc(I)cc1", "IC50": 1800}
{"smiles": "Cc1cccc(C)c1NC(=O)N/N=C/c1cccs1", "IC50": "> 25000"}
{"smiles": "COc1ccc(/C=N/NC(=O)Nc2c(C)cccc2C)cc1", "IC50": "> 12500"}
{"smiles": "CCc1ccc(/C=N/NC(=O)Nc2c(C)cccc2C)cc1", "IC50": 3000}
{"smiles": "Cc1cccc(C)c1NC(=O)N/N=C/c1c(F)c(F)c(N=[N+]=[N-])c(F)c1F", "IC50": "> 25000"}
{"smiles": "C#Cc1ccc(/C=N/NC(=O)Nc2c(C)cccc2C)cc1", "IC50": 1700}
{"smiles": "Cc1cccc(C)c1NC(=O)N/N=C/c1c(F)cc(Br)cc1F", "IC50": 4000}
